# According to US6790848B2, “4-piperazinylindole derivatives with 5-HT6 receptor affinity” (Syntex (U.S.A.) LLC, priority 2001, dated 2004):
# Structures can show the parent of a compound that is named as a salt.
# Target: T1, recombinant human 5-HT6 receptor (Homo sapiens, UniProt P50406)
# T1 construct: expressed in transfected cells; cell membranes used
# Test: Radioligand binding studies: competition for [3H]LSD binding in membranes of HEK293 cells
# Settings: [3H]LSD (5 nM), HEK293 cell membranes, 60 min at 37° C., pH 7.4
# Procedure: The pharmacology of the compounds of this invention was determined by art recognized procedures.
# The binding activity of compounds of this invention in vitro was determined as follows.
# Duplicate determinations of ligand affinity are made by competing for binding of [3H]LSD in cell membranes derived from HEK293 cells stably expressing recombinant human 5-HT6 receptor.
# All determinations are made in assay buffer containing 50 mM Tris-HCl, 10 mM MgSO4, 0.5 mM EDTA, 1 mM ascorbic acid, pH 7.4 at 37° C., in a 250 microliter reaction volume. Assay tubes containing [3H] LSD (5 nM), competing ligand, and membrane are incubated in a shaking water bath for 60 min. at 37° C., filtered onto Packard GF-B plates (pre-soaked with 0.3% PEI) using a Packard 96 well cell harvester and washed 3 times in ice cold 50 mM Tris-HCl. Bound [3H] LSD is determined as radioactive counts per minute using Packard TopCount.
# Displacement of [3H]LSD from the binding sites was quantified by fitting concentration-binding data to a 4-parameter logistic equation: [formula]
# where Hill is the Hill slope, [ligand] is the concentration of competing radioligand and IC50 is the concentration of radioligand producing half-maximal specific binding of radioligand. The specific binding window is the difference between the Bmax and the basal parameters.
# T1 sequence (P50406 whole entry): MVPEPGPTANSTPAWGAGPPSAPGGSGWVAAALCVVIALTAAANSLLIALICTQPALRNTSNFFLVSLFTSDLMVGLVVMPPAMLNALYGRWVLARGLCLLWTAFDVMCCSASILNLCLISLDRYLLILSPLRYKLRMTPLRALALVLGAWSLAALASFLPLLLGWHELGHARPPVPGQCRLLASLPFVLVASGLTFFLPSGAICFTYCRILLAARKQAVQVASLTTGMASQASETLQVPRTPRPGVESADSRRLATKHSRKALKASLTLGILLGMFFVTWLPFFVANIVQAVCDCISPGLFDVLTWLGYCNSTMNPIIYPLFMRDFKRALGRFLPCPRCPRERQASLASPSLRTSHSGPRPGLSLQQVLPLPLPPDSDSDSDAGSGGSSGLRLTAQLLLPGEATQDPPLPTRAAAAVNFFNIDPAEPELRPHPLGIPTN
SMILES,Ki,pKi
O=S(=O)(c1cccc(Cl)c1)n1ccc2c(N3CCNCC3)cccc21 [1-(3-chloro-benzenesulfonyl)-4-piperazin-1-yl-1H-indole],0.11 nM,–
CS(=O)(=O)c1ccc(S(=O)(=O)n2ccc3c(N4CCNCC4)cccc32)cc1 [1-(4-methanesulfonyl-benzenesulfonyl)-4-piperazin-1-yl-1H-indole],42.7 nM,–
O=S(=O)(c1ccccc1)n1cc(Br)c2c(N3CCNCC3)cccc21 [1-benzenesulfonyl-3-bromo-4-piperazin-1-yl-1H-indole],0.123 nM,–
CC(C)(C)c1ccc(S(=O)(=O)n2ccc3c(N4CCNCC4)cccc32)cc1 [1-(4-ter-butyl-benzenesulfonyl)-4-piperazin-1-yl-1H-indole],3.55 nM,–
CS(=O)(=O)c1cc(Br)cc(S(=O)(=O)n2ccc3c(N4CCNCC4)cccc32)c1 [1-(3-bromo-5-methanesulfonyl-benzenesulfonyl)-4-piperazin-1-yl-1H-indole],7.59 nM,–
CCCS(=O)(=O)c1cccc(S(=O)(=O)n2ccc3c(N4CCNCC4)cccc32)c1 [4-piperazin-1-yl-1-[3-(propane-1-sulfonyl)-benzenesulfonyl]-1H-indole],1.55 nM,–
COc1cccc(S(=O)(=O)n2ccc3c(N4CCNCC4)cccc32)c1 [1-(3-methoxy-benzenesulfonyl)-4-piperazin-1-yl-1H-indole],0.372 nM,–
O=S(=O)(c1ccc(Cl)cc1)n1ccc2c(N3CCNCC3)cccc21 [1-(4-chloro-benzenesulfonyl)-4-piperazin-1-yl-1H-indole],0.537 nM,–
O=S(=O)(NC1CC1)c1cccc(S(=O)(=O)n2ccc3c(N4CCNCC4)cccc32)c1 [N-cyclopropyl-3-(4-piperazin-1-yl-indole-1-sulfonyl)-benzenesulfonamide],1.26 nM,–
O=S(=O)(c1cccs1)n1ccc2c(N3CCNCC3)cccc21 [4-piperazin-1-yl-1-(thiophene-2-sulfonyl)-1H-indole],0.447 nM,–
"O=S(=O)(c1cc(Cl)ccc1Cl)n1ccc2c(N3CCNCC3)cccc21 [1-(2,5-dichloro-benzenesulfonyl)-4-piperazin-1-yl-1H-indole]",0.151 nM,–
CCS(=O)(=O)c1cccc(S(=O)(=O)n2ccc3c(N4CCNCC4)cccc32)c1 [1-(3-ethanesulfonyl-benzenesulfonyl)-4-piperazin-1-yl-1H-indole],1.55 nM,–
"COc1ccc(OC)c(S(=O)(=O)n2ccc3c(N4CCNCC4)cccc32)c1 [1-(2,5-dimethoxy-benzenesulfonyl)-4-piperazin-1-yl-1H-indole]",0.933 nM,–
CN(C)S(=O)(=O)c1cccc(S(=O)(=O)n2ccc3c(N4CCNCC4)cccc32)c1 [NN-dimethyl-3-(4-piperazin-1-yl-indole-1-sulfonyl)-benzenesulfonamide],–,8.69
CC(C)CS(=O)(=O)c1cccc(S(=O)(=O)n2ccc3c(N4CCNCC4)cccc32)c1 [1-[3-(2-methyl-propane-1-sulfonyl)-benzenesulfonyl]-4-piperazin-1-yl-1H-indole],1.91 nM,–
O=S(=O)(c1cccc2ccccc12)n1ccc2c(N3CCNCC3)cccc21 [1-(Naphthalene-1-sulfonyl)-4-piperazin-1-yl-1H-indole],0.158 nM,–
CS(=O)(=O)c1ccc(F)c(S(=O)(=O)n2ccc3c(N4CCNCC4)cccc32)c1 [1-(2-fluoro-5-methanesulfonyl-benzenesulfonyl)-4-piperazin-1-yl-1H-indole],13.8 nM,–
CN1CCN(c2cccc3c2ccn3S(=O)(=O)c2ccc(F)cc2)CC1 [1-(4-fluoro-benzenesulfonyl)-4-(4-methyl-piperazin-1-yl)-1H-indole],0.832 nM,–
O=S(=O)(c1cccc(C(F)(F)F)c1)n1ccc2c(N3CCNCC3)cccc21 [4-piperazin-1-yl-1-(3-trifluoromethyl-benzenesulfonyl)-1H-indole],0.2 nM,–
COc1ccc(S(=O)(=O)n2ccc3c(N4CCNCC4)cccc32)cc1 [1-(4-Methoxy-benzenesulfonyl)-4-piperazin-1-yl-1H-indole],0.447 nM,–
N#Cc1cccc(S(=O)(=O)n2ccc3c(N4CCNCC4)cccc32)c1 [3-(4-piperazin-1-yl-indole-1-sulfonyl)-benzonitrile],1.12 nM,–
O=S(=O)(c1ccccc1F)n1ccc2c(N3CCNCC3)cccc21 [1-(2-fluoro-benzenesulfonyl)-4-piperazin-1-yl-1H-indole],0.0525 nM,–
"O=S(=O)(c1cc(Cl)cc(Cl)c1)n1ccc2c(N3CCNCC3)cccc21 [1-(3,5-Dichloro-benzenesulfonyl)-4-piperazin-1-yl-1H-indole]",0.372 nM,–
CS(=O)(=O)c1ccccc1S(=O)(=O)n1ccc2c(N3CCNCC3)cccc21 [1-(2-methanesulfonyl-benzenesulfonyl)-4-piperazin-1-yl-1H-indole],16.6 nM,–
O=S(=O)(c1cnc(Cl)c(Br)c1)n1ccc2c(N3CCNCC3)cccc21 [1-(5-bromo-6-chloro-pyridine-3-sulfonyl)-4-piperazin-1-yl-1H-indole],5.62 nM,–
O=S(=O)(c1cccc(F)c1)n1ccc2c(N3CCNCC3)cccc21 [1-(3-fluoro-benzenesulfonyl)-4-piperazin-1-yl-1H-indole],0.155 nM,–
CS(=O)(=O)c1cccc(S(=O)(=O)n2ccc3c(N4CCNCC4)cccc32)c1 [1-(3-methanesulfonyl-benzenesulfonyl)-4-piperazin-1-yl-1Hindole],2.69 nM,–

# Tested on: not given
# Test: not given
# Settings: not given
row,SMILES,melting point
1,O=S(=O)(c1cccs1)n1ccc2c(N3CCNCC3)cccc21 (as salt: trifluoroacetate) [4-piperazin-1-yl-1-(thiophene-2-sulfonyl)-1H-indole],208 to 209 °C
2,COc1cccc(S(=O)(=O)n2ccc3c(N4CCNCC4)cccc32)c1 (as salt: trifluoroacetate) [1-(3-methoxy-benzenesulfonyl)-4-piperazin-1-yl-1H-indole],221 °C (dec.)
3,CC(C)(C)c1ccc(S(=O)(=O)n2ccc3c(N4CCNCC4)cccc32)cc1 (as salt: trifluoroacetate) [1-(4-ter-butyl-benzenesulfonyl)-4-piperazin-1-yl-1H-indole],231 to 232 °C (dec.)
4,O=S(=O)(c1ccc(F)cc1)n1ccc2c(N3CCNCC3)cccc21 (as salt: hydrochloride) [1-(4-fluoro-benzenesulfonyl)-4-piperazin-1-yl-1H-indole],203 to 204 °C
5,CS(=O)(=O)c1ccc(F)c(S(=O)(=O)n2ccc3c(N4CCNCC4)cccc32)c1 (as salt: trifluoroacetate) [1-(2-fluoro-5-methanesulfonyl-benzenesulfonyl)-4-piperazin-1-yl-1H-indole],172 to 173 °C (dec.)
6,"O=S(=O)(c1cc(Cl)ccc1Cl)n1ccc2c(N3CCNCC3)cccc21 (as salt: trifluoroacetate) [1-(2,5-dichloro-benzenesulfonyl)-4-piperazin-1-yl-1H-indole]",237 to 238 °C (dec.)
7,"COc1ccc(OC)c(S(=O)(=O)n2ccc3c(N4CCNCC4)cccc32)c1 (as salt: trifluoroacetate) [1-(2,5-dimethoxy-benzenesulfonyl)-4-piperazin-1-yl-1H-indole]",245 to 246 °C (dec.)
8,CCCS(=O)(=O)c1cccc(S(=O)(=O)n2ccc3c(N4CCNCC4)cccc32)c1 (as salt: trifluoroacetate) [4-piperazin-1-yl-1-[3-(propane-1-sulfonyl)-benzenesulfonyl]-1H-indole],173 to 174 °C
9,CS(=O)(=O)c1ccccc1S(=O)(=O)n1ccc2c(N3CCNCC3)cccc21 (as salt: trifluoroacetate) [1-(2-methanesulfonyl-benzenesulfonyl)-4-piperazin-1-yl-1H-indole],171 °C
10,"O=S(=O)(c1cc(Cl)cc(Cl)c1)n1ccc2c(N3CCNCC3)cccc21 (as salt: hydrochloride) [1-(3,5-Dichloro-benzenesulfonyl)-4-piperazin-1-yl-1H-indole]",156 to 157 °C
11,O=S(=O)(c1ccccc1)n1cc(Br)c2c(N3CCNCC3)cccc21 (as salt: hydrochloride) [1-benzenesulfonyl-3-bromo-4-piperazin-1-yl-1H-indole],304 to 305 °C
12,CS(=O)(=O)c1ccc(S(=O)(=O)n2ccc3c(N4CCNCC4)cccc32)cc1 (as salt: trifluoroacetate) [1-(4-methanesulfonyl-benzenesulfonyl)-4-piperazin-1-yl-1H-indole],234 to 235 °C (dec.)
13,O=S(=O)(c1cccc(Br)c1)n1ccc2c(N3CCNCC3)cccc21 (as salt: hydrochloride),158 to 159 °C
14,O=S(=O)(c1c(F)cccc1F)n1ccc2c(N3CCNCC3)cccc21 (as salt: trifluoroacetate),223 to 224 °C
15,O=S(=O)(c1ccc(Cl)cc1)n1ccc2c(N3CCNCC3)cccc21 (as salt: trifluoroacetate) [1-(4-chloro-benzenesulfonyl)-4-piperazin-1-yl-1H-indole],193 to 194 °C
16,O=S(=O)(c1cccc(C(F)(F)F)c1)n1ccc2c(N3CCNCC3)cccc21 (as salt: hydrochloride) [4-piperazin-1-yl-1-(3-trifluoromethyl-benzenesulfonyl)-1H-indole],256 to 257 °C
17,CCS(=O)(=O)c1cccc(S(=O)(=O)n2ccc3c(N4CCNCC4)cccc32)c1 (as salt: hydrochloride) [1-(3-ethanesulfonyl-benzenesulfonyl)-4-piperazin-1-yl-1H-indole],166 to 167 °C
